The values that follow come from patent publication US10221173B2, “Chemical compounds” (AstraZeneca AB, priority 2017, dated 2019).

Values after ≈ are worked out from the molar mass of the structure shown.

In data set [1] the target is recombinant human Estrogen Receptor alpha ligand binding domain (ER alpha-LBD (GST)) (Homo sapiens (Human), UniProt P03372). Put plainly: ERα binding assay (LanthaScreen TR-FRET competition). Background: In TR-FRET formats the signal depends on donor and acceptor labels being close together.
recombinant human Estrogen Receptor alpha ligand binding domain (ER alpha-LBD (GST)), sequence (P03372 307-554): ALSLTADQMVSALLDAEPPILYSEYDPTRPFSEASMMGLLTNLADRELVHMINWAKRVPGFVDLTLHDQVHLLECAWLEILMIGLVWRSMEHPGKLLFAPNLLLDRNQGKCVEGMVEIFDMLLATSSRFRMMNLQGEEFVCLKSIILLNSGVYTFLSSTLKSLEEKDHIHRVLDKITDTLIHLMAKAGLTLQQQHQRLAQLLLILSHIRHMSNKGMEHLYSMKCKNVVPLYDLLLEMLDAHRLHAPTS
Experimental: The ability of compounds to bind to isolated Estrogen Receptor Alpha Ligand binding domain (ER alpha—LBD (GST)) was assessed in competition assays using a LanthaScreen Time-Resolved Fluorescence Resonance Energy Transfer (TR-FRET) detection end-point. For the LanthaScreen TR-FRET endpoint, a suitable fluorophore (Fluormone ES2, ThermoFisher, Product code P2645) and recombinant human Estrogen Receptor alpha ligand binding domain, residues 307-554 (expressed and purified in-house) were used to measure compound binding. The assay principle is that ER alpha-LBD (GST) is added to a fluorescent ligand to form a receptor/fluorophore complex. A terbium-labelled anti-GST antibody (Product code PV3551) is used to indirectly label the receptor by binding to its GST tag, and competitive binding is detected by a test compound's ability to displace the fluorescent ligand, resulting in a loss of TR-FRET signal between the Tb-anti-GST antibody and the tracer. The assay was performed as follows with all reagent additions carried out using the Beckman Coulter BioRAPTR FRD microfluidic workstation: • 1. Acoustic dispense 120 nL of the test compound into a black low volume 384 well assay plates. • 2. Prepare 1× ER alpha-LBD/Tb-antiGST Ab in ES2 screening buffer and incubate for 15 minutes. • 3. […] Cover the assay plate to protect the reagents from light and evaporation, and incubate at room temperature for 4 hours. • 5. Excite at 337 nm and measure the fluorescent emission signal of each well at 490 nm and 520 nm using the BMG PheraSTAR.
TR-FRET dose response data obtained with each compound was exported into a suitable software package (such as Origin or Genedata) to perform curve fitting analysis. Competitive ER alpha binding was expressed as an IC50 value.
Data set [2] concerns the target Estrogen Receptor (ERα) in MCF-7 cells (Homo sapiens (Human), UniProt P03372). Put plainly: MCF-7 ER down-regulation assay (immuno-fluorescence). The data set is classed as cell-based. The note with it: for % downregulation (in brackets): maximum downregulation.
A short description of data set [3]: Human plasma protein binding (equilibrium dialysis). The data set is classed as in vitro ADME. (In general: In equilibrium dialysis only unbound substance equilibrates across the membrane.)
Data set [4] is described as follows: Thermodynamic solubility (shake-flask). The data set is classed as physicochemical. The settings on record: aqueous phosphate buffer, 25 °C, pH 7.4, aqueous buffer, thermodynamic from solid, phosphate buffer pH 7.4, 24 hours.
Experimental: The thermodynamic solubility of a research compound is measured under standard conditions. It is a shake-flask approach that uses 10 mM DMSO solutions which are supplied from the Compound Managements liquid store and is a high throughput method. The dried compounds are equilibrated in an aqueous phosphate buffer (pH 7.4) for 24 hours at 25° C., the portion with the dissolved compound is then separated from the remains. The solutions are analyzed and quantified using UPLC/MS/MS, QC-samples are incorporated in each assay-run to ensure the quality of the assay.
For the next data set, the target named is hERG potassium channel (Homo sapiens (Human), UniProt Q12809).
hERG potassium channel, sequence (Q12809 whole entry): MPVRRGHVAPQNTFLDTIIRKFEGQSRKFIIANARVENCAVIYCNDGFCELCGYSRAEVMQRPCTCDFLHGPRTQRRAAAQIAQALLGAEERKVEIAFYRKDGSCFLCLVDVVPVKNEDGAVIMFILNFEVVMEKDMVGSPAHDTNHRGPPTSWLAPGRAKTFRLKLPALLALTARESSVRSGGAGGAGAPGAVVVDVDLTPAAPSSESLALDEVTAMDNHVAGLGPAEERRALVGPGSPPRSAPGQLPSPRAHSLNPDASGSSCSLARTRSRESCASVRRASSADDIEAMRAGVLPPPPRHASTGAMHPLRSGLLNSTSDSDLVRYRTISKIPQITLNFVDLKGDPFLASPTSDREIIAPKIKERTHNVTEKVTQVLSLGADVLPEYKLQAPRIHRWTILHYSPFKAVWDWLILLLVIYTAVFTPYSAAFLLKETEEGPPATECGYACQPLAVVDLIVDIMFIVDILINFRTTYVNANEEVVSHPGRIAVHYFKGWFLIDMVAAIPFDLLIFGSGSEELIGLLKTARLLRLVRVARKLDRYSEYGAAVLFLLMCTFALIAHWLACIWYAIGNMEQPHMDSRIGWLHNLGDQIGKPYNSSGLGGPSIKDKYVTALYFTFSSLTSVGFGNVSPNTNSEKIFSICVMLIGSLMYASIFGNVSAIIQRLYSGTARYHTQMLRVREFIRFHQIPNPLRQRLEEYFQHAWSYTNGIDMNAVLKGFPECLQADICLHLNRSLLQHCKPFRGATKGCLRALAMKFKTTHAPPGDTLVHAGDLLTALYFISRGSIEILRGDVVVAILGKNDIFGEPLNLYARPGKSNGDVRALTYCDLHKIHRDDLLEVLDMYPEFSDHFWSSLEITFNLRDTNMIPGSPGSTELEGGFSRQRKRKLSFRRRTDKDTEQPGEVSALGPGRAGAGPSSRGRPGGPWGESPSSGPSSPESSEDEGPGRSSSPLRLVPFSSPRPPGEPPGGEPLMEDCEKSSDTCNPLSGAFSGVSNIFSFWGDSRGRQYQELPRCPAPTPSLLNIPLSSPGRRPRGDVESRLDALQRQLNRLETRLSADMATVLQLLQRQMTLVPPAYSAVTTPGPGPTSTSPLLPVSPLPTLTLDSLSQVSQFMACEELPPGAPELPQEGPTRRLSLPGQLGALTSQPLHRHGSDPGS
The nature of data set [5]: Log D (shake flask, 1-octanol/aqueous buffer). Type of data set: physicochemical. The note with it: 1-octanol/aqueous buffer, pH 7.4, pH 7.4.

Estrogen Receptor (ERα) in MCF-7 cells, sequence (P03372 whole entry): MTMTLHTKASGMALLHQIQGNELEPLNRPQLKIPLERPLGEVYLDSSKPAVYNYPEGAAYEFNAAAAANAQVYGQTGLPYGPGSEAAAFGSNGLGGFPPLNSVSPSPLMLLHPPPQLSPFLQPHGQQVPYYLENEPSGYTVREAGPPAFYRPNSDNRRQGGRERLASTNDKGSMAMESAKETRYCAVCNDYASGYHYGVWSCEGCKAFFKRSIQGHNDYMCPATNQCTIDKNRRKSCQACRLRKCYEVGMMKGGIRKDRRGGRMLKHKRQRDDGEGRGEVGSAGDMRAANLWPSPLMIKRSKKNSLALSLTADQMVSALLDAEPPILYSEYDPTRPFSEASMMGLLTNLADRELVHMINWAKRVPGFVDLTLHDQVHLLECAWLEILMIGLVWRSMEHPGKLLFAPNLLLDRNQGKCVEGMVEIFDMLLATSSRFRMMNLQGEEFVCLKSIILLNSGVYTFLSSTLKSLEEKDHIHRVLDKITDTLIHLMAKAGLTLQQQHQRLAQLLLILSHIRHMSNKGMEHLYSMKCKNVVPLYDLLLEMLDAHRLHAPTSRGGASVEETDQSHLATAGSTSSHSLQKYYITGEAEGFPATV

In general, IC50 refers to the concentration needed to halve the response being measured. In general, solubility refers to the dissolved amount per volume that the medium holds. A word on the logD: it is the decadic logarithm of the distribution of all forms, ionised or not, between an organic phase and buffer at a given pH. Read a low logD as a more hydrophilic compound. Turning to `C[C@@H]1Cc2c([nH]c3ccccc23)[C@@H](c2c(F)ccc(OCCNCCCF)c2F)N1CC1(S(C)(=O)=O)CC1` [Example 77, N-(2-(2,4-difluoro-3-((1R,3R)-3-methyl-2-((1-(methylsulfonyl)cyclopropyl)methyl)-2,3,4,9-tetrahydro-1H-pyrido[3,4-b]indol-1-yl)phenoxy)ethyl)-3-fluoropropan-1-amine], the IC50 in data set [1] is 7.3 nM; in data set [2], 6.2 nM; against hERG potassium channel it was 5400 nM. In addition, in data set [3], the “Human plasma protein binding (% free)” value is 5.5 % free. Also, the solubility at 24 h in data set [4] was found to be 410 µM (≈ 225 µg/mL). Besides, the logD in data set [5] was found to be 2.4.
With `Cc1ccc(OCCNCCCF)c(C)c1[C@@H]1c2[nH]c3ccccc3c2C[C@@H](C)N1CC(F)(F)F` [Example 79, N-(2-(2,4-dimethyl-3-((1R,3R)-3-methyl-2-(2,2,2-trifluoroethyl)-2,3,4,9-tetrahydro-1H-pyrido[3,4-b]indol-1-yl)phenoxy)ethyl)-3-fluoropropan-1-amine], the values for the IC50 (in data set [1]; in data set [2]; against hERG potassium channel) were 1.4 nM, 0.16 nM and 10000 nM, respectively. Moreover, the “Human plasma protein binding (% free)” value in data set [3] is on record as less than 0.4 % free. In data set [4], this compound registered a solubility at 24 h of 3.9 µM (≈ 1.92 µg/mL). In addition, the logD in data set [5] stood at 4.8.
As for `COc1ccc(OCCNCCCF)c(F)c1[C@@H]1c2[nH]c3ccccc3c2C[C@@H](C)N1CC(F)(F)CO` [Example 81, 2,2-difluoro-3-((1R,3R)-1-(2-fluoro-3-(2-((3-fluoropropyl)amino)ethoxy)-6-methoxyphenyl)-3-methyl-1,3,4,9-tetrahydro-2H-pyrido[3,4-b]indol-2-yl)propan-1-ol], the IC50 is greater than 110 nM in data set [1], 0.17 nM in data set [2] and 3900 nM on hERG potassium channel. In addition, the “Human plasma protein binding (% free)” value in data set [3] stood at 2.9 % free. This compound also came in with a solubility at 24 h in data set [4] of 736 µM (≈ 385 µg/mL). Further, in data set [5], the logD was found to be 2.6.
As for `COc1ccc(OCCNCCCF)c(F)c1[C@@H]1c2[nH]c3ccccc3c2C[C@@H](C)N1CC1(F)CC1` [Example 83, 3-fluoro-N-(2-(2-fluoro-3-((1R,3R)-2-((1-fluorocyclopropyl)methyl)-3-methyl-2,3,4,9-tetrahydro-1H-pyrido[3,4-b]indol-1-yl)-4-methoxyphenoxy)ethyl)propan-1-amine], the IC50 came out at 1.7 nM in data set [1], 0.28 nM in data set [2] and 4000 nM on hERG potassium channel. Besides, in data set [2], the “% downregulation (in brackets)” value is 90%. Moreover, in data set [3], the “Human plasma protein binding (% free)” value was determined as 2.5 % free. In data set [4], this compound came in with a solubility at 24 h of 595 µM (≈ 298 µg/mL). In data set [5], the logD was 2.9.
Take `COc1ccc(OCCNCCCF)c(F)c1[C@@H]1c2[nH]c3ccccc3c2C[C@@H](C)N1CC1(F)COC1` [Example 84, 3-fluoro-N-(2-(2-fluoro-3-((1R,3R)-2-((3-fluorooxetan-3-yl)methyl)-3-methyl-2,3,4,9-tetrahydro-1H-pyrido[3,4-b]indol-1-yl)-4-methoxyphenoxy)ethyl)propan-1-amine]: the IC50 in data set [1] turned out to be 0.94 nM; in data set [2] it was 0.16 nM; on hERG potassium channel it was 2800 nM. The “% downregulation (in brackets)” value in data set [2] stood at 83%. In data set [3], the “Human plasma protein binding (% free)” value is recorded as 6 % free. The same compound returned a solubility at 24 h in data set [4] of 640 µM (≈ 331 µg/mL). Besides, in data set [5], the log distribution coefficient (logD) was found to be 2.4.
Consider `C[C@@H]1Cc2c([nH]c3ccccc23)[C@@H](c2c(F)ccc(OCCNCCCF)c2Cl)N1CC(F)(F)CO` [Example 85, 3-((1R,3R)-1-(2-chloro-6-fluoro-3-(2-((3-fluoropropyl)amino)ethoxy)phenyl)-3-methyl-1,3,4,9-tetrahydro-2H-pyrido[3,4-b]indol-2-yl)-2,2-difluoropropan-1-ol], for which the values for the IC50 (in data set [1]; in data set [2]; against hERG potassium channel) were 1.3 nM, 0.089 nM and 4200 nM, respectively. Further, the “Human plasma protein binding (% free)” value in data set [3] was determined as 1.0 % free. The solubility at 24 h in data set [4] worked out at 224 µM (≈ 118 µg/mL). The pH-dependent lipophilicity (logD) in data set [5] was 3.1.
